The record followed here is ChEMBL document CHEMBL4177715, “Synthesis of radioiodinated probes targeted toward matrix metalloproteinase-12” (Bioorg Med Chem Lett, 2018).

Structures are written as SMILES.

Test [1] addresses Macrophage metalloelastase (Homo sapiens, UniProt P39900). The test is described as follows: Inhibition of recombinant human MMP12 using Mca-Pro-Leu-Gly-Leu-Dpa(Dnp)-Ala-Arg-NH2 as substrate after 30 mins by fluorescence spectrometry.
For the next test, the target named is Collagenase 3 (Homo sapiens, UniProt P45452). The test is described as follows: Inhibition of recombinant human MMP13 using Mca-Pro-Leu-Gly-Leu-Dpa(Dnp)-Ala-Arg-NH2 as substrate after 30 mins by fluorescence spectrometry.

Chain of Macrophage metalloelastase (P39900 whole entry): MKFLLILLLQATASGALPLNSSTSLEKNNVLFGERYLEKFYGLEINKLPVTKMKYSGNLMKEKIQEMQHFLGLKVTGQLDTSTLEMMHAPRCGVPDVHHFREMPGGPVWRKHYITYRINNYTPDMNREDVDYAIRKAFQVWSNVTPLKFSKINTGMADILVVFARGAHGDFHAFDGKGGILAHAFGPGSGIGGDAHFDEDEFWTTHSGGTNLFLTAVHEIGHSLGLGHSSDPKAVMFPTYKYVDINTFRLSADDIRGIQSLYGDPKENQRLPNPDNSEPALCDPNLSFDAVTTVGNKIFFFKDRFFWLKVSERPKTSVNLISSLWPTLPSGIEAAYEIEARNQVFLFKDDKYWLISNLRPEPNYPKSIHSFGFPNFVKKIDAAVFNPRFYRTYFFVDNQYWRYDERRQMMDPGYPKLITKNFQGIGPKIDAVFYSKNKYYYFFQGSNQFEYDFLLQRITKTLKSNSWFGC

Consider `CC(C)[C@H](NS(=O)(=O)c1ccc2c(c1)oc1ccc(NC(=O)Oc3ccc(Br)cc3)cc12)C(=O)O`, for which the IC50 in test [1] was 11 nM; at Collagenase 3, 51 nM.
`CC(C)[C@H](NS(=O)(=O)c1ccc2c(c1)oc1ccc(NC(=O)c3ccc(I)cc3)cc12)C(=O)O`: the figures for the IC50 (in test [1]; on Collagenase 3) were 502 nM and above 2000 nM, respectively.
The matching figures for `CC(C)[C@H](NS(=O)(=O)c1ccc2c(c1)oc1ccc(NC(=O)Oc3ccc(I)cc3)cc12)C(=O)O`: 8.5 nM and 69 nM.
As for `CC(C)[C@H](NS(=O)(=O)c1ccc2c(c1)oc1ccc(NS(=O)(=O)c3ccc(I)cc3)cc12)C(=O)O`, the IC50 worked out at 297 nM in test [1] and 403 nM at Collagenase 3.
Take `CC(C)[C@H](NS(=O)(=O)c1ccc2c(c1)oc1ccc(NC(=O)Oc3ccc(F)cc3)cc12)C(=O)O`: the IC50 on Collagenase 3 came to 65 nM.

As a reminder, the IC50 is the concentration that inhibits the measured activity by half.
